Measurements published in ChEMBL document CHEMBL1138436, “Biological activity and chemistry of taxoids from the Japanese yew, Taxus cuspidata” (J Nat Prod, 2004).

How the values were obtained:
Type in all cases: functional
[1] = test system: MKN-7; test: Growth inhibition of human MKN7 cells
[2] = test system: HT-29; test: Growth inhibition of human HT-29 cells
[3] = test system: HCT-15; test: Growth inhibition of human HCT15 cells
[4] = test system: PC-3; test: Growth inhibition of human PC3 cells
[5] = Growth inhibition of human HBC5 cells
[6] = test system: MDA-MB-231; test: Growth inhibition of human MDA-MB-231 cells
[7] = Growth inhibition of human RXF631L cells
[8] = test system: DU-145; test: Growth inhibition of human DU145 cells
[9] = test system: LOX IMVI; test: Growth inhibition of human LOXIMVI cells
[10] = test system: NCI-H226; test: Growth inhibition of human NCI-H226 cells
[11] = test system: SK-OV-3; test: Growth inhibition of human SKOV3 cells
[12] = test system: OVCAR-3; test: Growth inhibition of human OVCAR-3 cells
[13] = test system: MKN-45; test: Growth inhibition of human MKN45 cells
[14] = test system: HCC 2998; test: Growth inhibition of human HCC2998 cells
[15] = test system: OVCAR-5; test: Growth inhibition of human OVCAR5 cells
[16] = test system: MCF7; test: Growth inhibition of human MCF7 cells
[17] = test system: A549; test: Growth inhibition of human A549 cells
[18] = test system: NCI-H23; test: Growth inhibition of human NCI-H23 cells
[19] = Growth inhibition of human MKN1 cells
[20] = test system: DMS-114; test: Growth inhibition of human DMS114 cells
[21] = test system: KM12; test: Growth inhibition of human KM12 cells
[22] = test system: SNB-78; test: Growth inhibition of human SNB78 cells
[23] = Growth inhibition of human BSY1 cells
[24] = test system: NCI-H522; test: Growth inhibition of human NCI-H522 cells
[25] = test system: SF-295; test: Growth inhibition of human SF295 cells
[26] = test system: NCI-H460; test: Growth inhibition of human NCI-H460 cells
[27] = test system: St-4; test: Growth inhibition of human St-4 cells
[28] = test system: OVCAR-4; test: Growth inhibition of human OVCAR4 cells
[29] = read-out: LC50 (the source's name)
[30] = read-out: pLC50 (the source's name) (converted)

Compound: CC(=O)O[C@H]1C[C@H]2OC[C@@]2(OC(C)=O)[C@H]2[C@H](OC(=O)c3ccccc3)[C@]3(O)C[C@H](O)C(C)=C([C@@H](O)[C@H](O)[C@]12C)C3(C)C [TAXUSPINE E]
- TGI [1]: 93 µM
- GI50 ([1]; read-out: GI50): 18 µM
- CC50 [1, 29]: > 100 µM
- GI50 ([1]; read-out: pGI50 (converted)): 18.2 µM
- GI50 ([2]; read-out: GI50): 28 µM
- CC50 [2, 29]: > 100 µM
- TGI ([2]; read-out: TGI): > 100 µM
- GI50 ([2]; read-out: pGI50 (converted)): 27.5 µM
- TGI ([2]; read-out: pTGI (converted)): 100 µM
- GI50 ([3]; read-out: GI50): 32 µM
- CC50 [3, 29]: > 100 µM
- TGI ([3]; read-out: TGI): > 100 µM
- GI50 ([3]; read-out: pGI50 (converted)): 32.4 µM
- CC50 [3, 30]: 100 µM
- TGI ([3]; read-out: pTGI (converted)): 100 µM
- GI50 ([4]; read-out: GI50): 20 µM
- CC50 [4, 29]: > 100 µM
- TGI ([4]; read-out: TGI): > 100 µM
- GI50 ([4]; read-out: pGI50 (converted)): 20 µM
- TGI ([4]; read-out: pTGI (converted)): 100 µM
- GI50 ([5]; read-out: GI50): 25 µM
- CC50 [5, 29]: > 100 µM
- TGI ([5]; read-out: TGI): > 100 µM
- GI50 ([5]; read-out: pGI50 (converted)): 25.1 µM
- TGI ([5]; read-out: pTGI (converted)): 100 µM
- GI50 ([6]; read-out: GI50): 18 µM
- CC50 [6, 29]: > 100 µM
- GI50 ([6]; read-out: pGI50 (converted)): 18.2 µM
- CC50 [6, 30]: 100 µM
- TGI ([6]; read-out: pTGI (converted)): 100 µM
- TGI ([7]; RXF 631): > 100 µM
- GI50 ([7]; RXF 631, read-out: GI50): 25 µM
- CC50 ([7]; RXF 631, read-out: LC50 (the source's name)): 5100 µM
- GI50 ([7]; RXF 631, read-out: pGI50 (converted)): 24.5 µM
- CC50 ([7]; RXF 631, read-out: pLC50 (the source's name) (converted)): 100 µM
- TGI [8]: > 100 µM
- GI50 ([8]; read-out: GI50): 33 µM
- CC50 [8, 29]: > 100 µM
- GI50 ([8]; read-out: pGI50 (converted)): 32.4 µM
- CC50 [8, 30]: 100 µM
- GI50 ([9]; read-out: GI50): 35 µM
- CC50 [9, 29]: > 100 µM
- TGI ([9]; read-out: TGI): > 100 µM
- GI50 ([9]; read-out: pGI50 (converted)): 34.7 µM
- TGI ([9]; read-out: pTGI (converted)): 100 µM
- GI50 ([10]; read-out: GI50): 32 µM
- CC50 [10, 29]: > 100 µM
- TGI ([10]; read-out: TGI): > 100 µM
- GI50 ([10]; read-out: pGI50 (converted)): 32.4 µM
- CC50 [10, 30]: 100 µM
- TGI ([10]; read-out: pTGI (converted)): 100 µM
- GI50 ([11]; read-out: GI50): 68 µM
- CC50 [11, 29]: > 100 µM
- TGI ([11]; read-out: TGI): 100 µM
- GI50 ([11]; read-out: pGI50 (converted)): 69.2 µM
- CC50 [11, 30]: 100 µM
- TGI ([11]; read-out: pTGI (converted)): 100 µM
- GI50 ([12]; read-out: GI50): 21 µM
- CC50 [12, 29]: > 100 µM
- TGI ([12]; read-out: TGI): 99 µM
- GI50 ([12]; read-out: pGI50 (converted)): 20.4 µM
- CC50 [12, 30]: 100 µM
- TGI ([12]; read-out: pTGI (converted)): 100 µM
- GI50 ([13]; read-out: GI50): 27 µM
- CC50 [13, 29]: > 100 µM
- TGI ([13]; read-out: TGI): > 100 µM
- GI50 ([13]; read-out: pGI50 (converted)): 26.9 µM
- CC50 [13, 30]: 100 µM
- TGI ([13]; read-out: pTGI (converted)): 100 µM
- TGI [14]: > 100 µM
- GI50 ([14]; read-out: GI50): 27 µM
- CC50 [14, 29]: > 100 µM
- GI50 ([14]; read-out: pGI50 (converted)): 27.5 µM
- GI50 ([15]; read-out: GI50): 48 µM
- CC50 [15, 29]: > 100 µM
- TGI ([15]; read-out: TGI): > 100 µM
- GI50 ([15]; read-out: pGI50 (converted)): 47.9 µM
- CC50 [15, 30]: 100 µM
- TGI ([15]; read-out: pTGI (converted)): 100 µM
- GI50 ([16]; read-out: GI50): 24 µM
- CC50 [16, 29]: > 100 µM
- TGI ([16]; read-out: TGI): 93 µM
- GI50 ([16]; read-out: pGI50 (converted)): 24 µM
- CC50 [16, 30]: 100 µM
- TGI ([16]; read-out: pTGI (converted)): 93.3 µM
- GI50 ([17]; read-out: GI50): 30 µM
- CC50 [17, 29]: 100 µM
- TGI ([17]; read-out: TGI): > 100 µM
- GI50 ([17]; read-out: pGI50 (converted)): 30.2 µM
- CC50 [17, 30]: 100 µM
- TGI ([17]; read-out: pTGI (converted)): 100 µM
- GI50 ([18]; read-out: GI50): 23 µM
- CC50 [18, 29]: 100 µM
- TGI ([18]; read-out: TGI): 69 µM
- GI50 ([18]; read-out: pGI50 (converted)): 22.9 µM
- CC50 [18, 30]: 100 µM
- TGI ([18]; read-out: pTGI (converted)): 69.2 µM
- GI50 ([19]; MKN-1, read-out: GI50): 49 µM
- CC50 ([19]; MKN-1, read-out: LC50 (the source's name)): > 100 µM
- TGI ([19]; MKN-1, read-out: TGI): > 100 µM
- GI50 ([19]; MKN-1, read-out: pGI50 (converted)): 49 µM
- CC50 ([19]; MKN-1, read-out: pLC50 (the source's name) (converted)): 100 µM
- TGI ([19]; MKN-1, read-out: pTGI (converted)): 100 µM
- GI50 ([20]; read-out: GI50): 10 µM
- CC50 [20, 29]: > 100 µM
- TGI ([20]; read-out: TGI): 57 µM
- GI50 ([20]; read-out: pGI50 (converted)): 10 µM
- TGI ([20]; read-out: pTGI (converted)): 57.5 µM
- GI50 ([21]; read-out: GI50): 42 µM
- CC50 [21, 29]: 100 µM
- TGI ([21]; read-out: TGI): > 100 µM
- GI50 ([21]; read-out: pGI50 (converted)): 41.7 µM
- CC50 [21, 30]: 100 µM
- TGI ([21]; read-out: pTGI (converted)): 100 µM
- GI50 ([22]; read-out: GI50): 50 µM
- CC50 [22, 29]: > 100 µM
- TGI ([22]; read-out: TGI): > 100 µM
- GI50 ([22]; read-out: pGI50 (converted)): 50.1 µM
- CC50 [22, 30]: 100 µM
- TGI ([22]; read-out: pTGI (converted)): 100 µM
- GI50 ([23]; BSY-1, read-out: GI50): 30 µM
- CC50 ([23]; BSY-1, read-out: LC50 (the source's name)): > 100 µM
- TGI ([23]; BSY-1, read-out: TGI): > 100 µM
- GI50 ([23]; BSY-1, read-out: pGI50 (converted)): 30.2 µM
- CC50 ([23]; BSY-1, read-out: pLC50 (the source's name) (converted)): 100 µM
- TGI ([23]; BSY-1, read-out: pTGI (converted)): 100 µM
- GI50 ([24]; read-out: GI50): 15 µM
- CC50 [24, 29]: > 100 µM
- TGI ([24]; read-out: TGI): 49 µM
- GI50 ([24]; read-out: pGI50 (converted)): 15.1 µM
- TGI ([24]; read-out: pTGI (converted)): 49 µM
- GI50 ([25]; read-out: GI50): 21 µM
- CC50 [25, 29]: > 100 µM
- TGI ([25]; read-out: TGI): > 100 µM
- GI50 ([25]; read-out: pGI50 (converted)): 21.4 µM
- TGI ([25]; read-out: pTGI (converted)): 100 µM
- GI50 ([26]; read-out: GI50): 36 µM
- TGI ([26]; read-out: TGI): > 100 µM
- GI50 ([26]; read-out: pGI50 (converted)): 35.5 µM
- TGI ([26]; read-out: pTGI (converted)): 100 µM
- GI50 ([27]; read-out: GI50): 33 µM
- CC50 [27, 29]: > 100 µM
- TGI ([27]; read-out: TGI): > 100 µM
- GI50 ([27]; read-out: pGI50 (converted)): 33.1 µM
- CC50 [27, 30]: 100 µM
- TGI ([27]; read-out: pTGI (converted)): 100 µM
- GI50 ([28]; read-out: GI50): 21 µM
- CC50 [28, 29]: > 100 µM
- TGI ([28]; read-out: TGI): > 100 µM
- GI50 ([28]; read-out: pGI50 (converted)): 21.4 µM
- CC50 [28, 30]: 100 µM
- TGI ([28]; read-out: pTGI (converted)): 100 µM
